The term TGI denotes the concentration giving total growth inhibition. Read a high TGI as lower sensitivity of the cells. A word on the GI50: it is the concentration giving 50% growth inhibition.

Several values for one entry are separate records, joined by “and”; a condition that tells them apart may be missing. Equal entries are not always repeated.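 Five compound concentrations were applied to cells in 96-well plates for 48 hours; endpoints were derived by simple linear interpolation of the resulting dose-response curve. Here, GI50 denotes the concentration required for 50% inhibition of growth. The concentration for full growth arrest is given as TGI.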

Test systems include TK-10 renal; COLO 205 colon; SF-268 CNS; SF-539 CNS; HCC-2998 colon; KM12 colon; MALME-3M melanoma; SF-295 CNS; K-562 leukemia; RXF 393 renal.
What all share (test): DTP human tumour cell line panel, 48 h

As for `CC1OC(O[C@@H]2C=C3CC[C@@H]4[C@H](CC[C@]5(C)[C@@H](c6ccc(=O)oc6)CC[C@]45O)[C@@]3(C)CC2)C(O)C(OC2OC(CO)C(O)C(O)C2O)C1O` (stereo partly specified), the TGI is 0.016 µM in the assay on TK-10 renal; 0.163 µM and 0.029 µM in the assay with COLO 205 colon; 0.00983 µM with SF-268 CNS; 0.000699 µM in the assay on SF-539 CNS; 0.0422 µM in the assay with HCC-2998 colon; 0.182 µM and 0.039 µM with KM12 colon. Besides, the TGI in the assay with MALME-3M melanoma is 0.0143 µM. The GI50 in the assay on COLO 205 colon was 0.000949 µM; in the assay on KM12 colon, 0.000437 µM; in the assay with MALME-3M melanoma, 0.000628 µM.
For `Cc1cc(O)c2c(c1)C(C1c3cccc(O)c3C(=O)c3c(O)cc(C)cc31)c1cccc(O)c1C2=O` (stereo unspecified), the TGI in the assay with TK-10 renal is 20.6 µM; in the assay on COLO 205 colon it was 0.378 µM; in the assay with SF-268 CNS, 14 µM; in the assay on SF-539 CNS, 0.556 µM; in the assay on HCC-2998 colon it was 16.6 µM; in the assay with SF-295 CNS it was 4.31 µM. Besides, the TGI in the assay on KM12 colon worked out at 4.29 µM; in the assay with MALME-3M melanoma it was 1.25 µM; with K-562 leukemia, 11.7 µM; in the assay on RXF 393 renal it was 0.861 µM.
Turning to `O=S(O)c1cc(Cl)c(O)c(Cl)c1`, the total growth inhibition concentration (TGI) in the assay on TK-10 renal, in the assay on SF-268 CNS, in the assay on SF-539 CNS, in the assay with HCC-2998 colon, in the assay with KM12 colon and in the assay with MALME-3M melanoma was > 100 µM each time. Moreover, the concentration for total growth inhibition (TGI) in the assay on K-562 leukemia and in the assay on RXF 393 renal was > 100 µM in each case.
On to `CC(=O)OCC1OC(N=[N+]=[N-])C(OC(C)=O)C(OC(C)=O)C1OC1OC(COC(C)=O)C(OC(C)=O)C(OC(C)=O)C1OC(C)=O` (stereo unspecified), for which the total growth inhibition concentration (TGI) in the assay with TK-10 renal, in the assay on COLO 205 colon, in the assay on SF-268 CNS, with SF-539 CNS, in the assay on HCC-2998 colon and with SF-295 CNS was > 100 µM in each case. The TGI in the assay on KM12 colon, in the assay with MALME-3M melanoma, in the assay with K-562 leukemia and in the assay on RXF 393 renal was > 100 µM in each case.
Turning to `O=C1C(=C([O-])c2ccccc2)C(=O)c2ccccc21.O=C1C(=C([O-])c2ccccc2)C(=O)c2ccccc21.[Ni+2]`, the GI50 in the assay on TK-10 renal is > 100 µM; in the assay on SF-539 CNS, 59.2 µM; in the assay on HCC-2998 colon, 58.9 µM; in the assay on SF-295 CNS, 41.4 µM; in the assay on KM12 colon it was 84.6 µM; with MALME-3M melanoma, 75.4 µM. In addition, the GI50 with RXF 393 renal was 48.8 µM. Moreover, the TGI with TK-10 renal, with SF-539 CNS, in the assay on HCC-2998 colon, in the assay with SF-295 CNS, with KM12 colon and in the assay on MALME-3M melanoma was > 100 µM in each case. Further, in the assay on RXF 393 renal, the concentration for total growth inhibition (TGI) is > 100 µM.
Regarding `COc1ccc([I+]c2ccc(OC)cc2)cc1`, the concentration for total growth inhibition (TGI) in the assay on TK-10 renal, in the assay with COLO 205 colon, with SF-268 CNS, in the assay on SF-539 CNS, with HCC-2998 colon and in the assay on SF-295 CNS was > 100 µM each time. Moreover, the TGI in the assay on KM12 colon, in the assay on MALME-3M melanoma, in the assay on K-562 leukemia and in the assay with RXF 393 renal was > 100 µM in each case. The GI50 in the assay with COLO 205 colon was 9.34 µM; with SF-268 CNS, 12.6 µM; in the assay with SF-539 CNS, 11 µM; in the assay with HCC-2998 colon, 16 µM; in the assay with SF-295 CNS, 5.07 µM; in the assay with KM12 colon it was 6.63 µM. In addition, the GI50 with MALME-3M melanoma was 13.8 µM; with K-562 leukemia it was 2.74 µM; with RXF 393 renal it was 27.3 µM.
In the case of `Cn1c(=O)c2[nH]c(SC/C(=N/O)c3ccc(Br)cc3)nc2n(C)c1=O`, the GI50 in the assay on TK-10 renal was 1.92 µM; with COLO 205 colon it was > 100 µM; in the assay on SF-295 CNS it was 1.82 µM; with MALME-3M melanoma it was 2.4 µM; with K-562 leukemia, 25.9 µM; in the assay with RXF 393 renal, 2.05 µM. Besides, the total growth inhibition concentration (TGI) with TK-10 renal was 3.41 µM; in the assay with COLO 205 colon it was > 100 µM; in the assay with SF-295 CNS, 4.1 µM; in the assay on MALME-3M melanoma, 5.22 µM; in the assay on K-562 leukemia it was > 100 µM; in the assay on RXF 393 renal, 3.76 µM.
Consider `COc1cc2c[n+](C)c3c4cc(OC)c(OCc5ccccc5)cc4c(OCc4ccccc4)cc3c2cc1OC`, for which the TGI in the assay with TK-10 renal was 79 µM; in the assay on COLO 205 colon, 2.97 µM; in the assay with SF-268 CNS, 17.4 µM; with SF-539 CNS it was 11.8 µM; in the assay with HCC-2998 colon, 32.4 µM; in the assay on SF-295 CNS it was > 69.3 µM. The TGI in the assay with KM12 colon is 23.8 µM; in the assay on MALME-3M melanoma it was 10.7 µM; with K-562 leukemia it was > 25 µM; in the assay with RXF 393 renal, 41.1 µM.
Consider `O=c1[nH]c(=O)n(C2CC(O)C(CO)O2)cc1Br` (stereo unspecified), for which the concentration for total growth inhibition (TGI) in the assay with TK-10 renal, with COLO 205 colon, in the assay on SF-268 CNS, with SF-539 CNS, with HCC-2998 colon and in the assay with SF-295 CNS was > 100 µM throughout. Further, the TGI with KM12 colon, with MALME-3M melanoma, with K-562 leukemia and in the assay with RXF 393 renal was > 100 µM each time.
As to `COc1cc(O)c(Cc2ccccc2O)c(O)c1C(=O)CCc1ccccc1`, the TGI in the assay with COLO 205 colon turned out to be 16.5 µM; with SF-268 CNS, 33.5 µM; in the assay with SF-539 CNS it was 15.7 µM; with HCC-2998 colon, 19.8 µM; in the assay with SF-295 CNS it was 16.1 µM; with KM12 colon, 25.3 µM. Moreover, the TGI in the assay on MALME-3M melanoma came out at 15.8 µM; with K-562 leukemia, 20 µM; in the assay with RXF 393 renal, 18.9 µM.
As to `COc1ccc2c3/c(=C\c4ccc(N(C)C)cc4)c4ccccc4n3[n+](C)c2c1`, the GI50 was 0.274 µM with TK-10 renal; 0.029 µM in the assay on COLO 205 colon; 0.437 µM with SF-268 CNS; 0.0409 µM in the assay on SF-539 CNS; < 0.0378 µM in the assay on HCC-2998 colon; 0.202 µM in the assay with SF-295 CNS. The GI50 was 0.255 µM in the assay with KM12 colon, 0.0272 µM in the assay on K-562 leukemia and 0.0603 µM in the assay on RXF 393 renal. Further, the TGI with TK-10 renal was 1.32 µM; in the assay with COLO 205 colon it was 0.757 µM; with SF-268 CNS it was 3.03 µM; in the assay with SF-539 CNS, 0.748 µM; in the assay with HCC-2998 colon, 0.31 µM; in the assay with KM12 colon it was 1.24 µM. Besides, the TGI with K-562 leukemia is > 40 µM; in the assay with RXF 393 renal, 1.04 µM.
In the case of `COc1ccccc1C(=O)OCC1CCCN2CCCCC12` (stereo unspecified), the total growth inhibition concentration (TGI) in the assay with TK-10 renal is > 100 µM; in the assay with COLO 205 colon, > 100 µM; in the assay on SF-268 CNS, > 100 µM; in the assay on SF-539 CNS, > 100 µM; in the assay on HCC-2998 colon, 42.2 µM; in the assay on SF-295 CNS, > 100 µM. Further, the TGI was 36.6 µM with KM12 colon, > 100 µM in the assay on MALME-3M melanoma, > 100 µM with K-562 leukemia and 73.6 µM in the assay on RXF 393 renal.
On to `NC(=O)/N=C/c1c(O)c2ccccc2oc1=O`, for which the concentration for total growth inhibition (TGI) in the assay with TK-10 renal, in the assay on COLO 205 colon, in the assay with SF-268 CNS, in the assay with SF-539 CNS, with HCC-2998 colon and with SF-295 CNS was > 100 µM each time. The TGI in the assay on KM12 colon was > 100 µM; with K-562 leukemia, > 100 µM; in the assay on RXF 393 renal, 82.4 µM.
With `COC(=O)c1c(O)ccc2c1c1c(n2Cc2cccc(C)c2)C(=O)c2ccccc2C1`, the TGI in the assay on TK-10 renal is > 75 µM; in the assay on COLO 205 colon, 22.3 µM; with SF-268 CNS, > 75 µM; in the assay on SF-539 CNS, 61.4 µM; in the assay with SF-295 CNS it was > 75 µM; with MALME-3M melanoma, 69.5 µM. The TGI was > 75 µM with K-562 leukemia and 30 µM in the assay on RXF 393 renal.
